# Measurements as given in patent publication US6774211B1, “Peptide antiangiogenic drugs” (Abbott Laboratories, priority 1998, dated 2004).
# Where a SMILES comes first, the peptide text is derived from it. [ ]: non-standard residue; d: D form. Nva = CCC[C@H](N)C(=O)O; Sar = CNCC(=O)O
# System: Human Microvascular Endothelial Cells (HMVEC)
# Assay: Human microvascular endothelial cell (HMVEC) migration assay, modified Boyden chamber
# Type: cell-based
# Conditions: 10 nM; migration stimulated with 15 ng/ml bFGF/VEGF; compared to positive control
# Experimental: The human microvascular endothelial (HMVEC) migration assay was run according to the procedure of S. S. Tolsma, O. V. Volpert, D. J. Good, W. F. Frazier, P. J. Polverini and N. Bouck, J. Cell Biol. 122, 497-511 (1993).
# The HMVEC migration assay was carried out using Human Microvascular Endothelial Cells-Dermal (single donor) and Human Microvascular Endothelial Cells, (neonatal). The BCE or HMVEC cells were starved overnight in DME containing 0.1% bovine serum albumin (BSA). Cells were then harvested with trypsin and resuspended in DME with 0.1% BSA at a concentration of 1.5×10^6 cells per ml. Cells were added to the bottom of a 48 well modified Boyden chamber (Nucleopore Corporation, Cabin John, Md.). The chamber was assembled and inverted, and cells were allowed to attach for 2 hours at 37° C. to polycarbonate chemotaxis membranes (5 μm pore size) that had been soaked in 0.1% gelatin overnight and dried. The chamber was then reinverted, and test substances (total volume of 50 μl), including activators, 15 ng/ml bFGF/VEGF, were added to the wells of the upper chamber. The apparatus was incubated for 4 hours at 37° C. Membranes were recovered, fixed and stained (Diff Quick, Fisher Scientific) and the number of cells that had migrated to the upper chamber per […] high power fields counted. Background migration to DME+0.1 BSA was subtracted and the data reported as the number of cells migrated per 10 high power fields (400×) or, when results from multiple experiments were combined, as the percent inhibition of migration compared to a positive control.
row,Compound,% Inhib. @ 10 nM
1,"CCC[C@H](NC(=O)[C@@H](NC(=O)[C@H](NC(=O)[C@@H](NC(=O)CNC(=O)CN(C)C(C)=O)C(C)C)[C@H](C)CC)[C@@H](C)O)C(=O)N[C@H](C(=O)N[C@@H](CCCNC(=N)N)C(=O)N1CCC[C@H]1C(=O)NCC)[C@@H](C)CC [Example 1, N-Ac-Sar-Gly-Val-D-Ile-Thr-Nva-Ile-Arg-ProNHCH2CH3] (Ac-[Sar]GV[dI]T[Nva]IRP-NHEt)",76.9%
2,N-(Tetrahydro-2-furoyl)-Sar-Gly-Val-D-Ile-Thr-Nva-Ile-Arg-ProNHCH2CH3 [Example 61],83.7%
3,N-Ac-Sar-Gly-Val-D-Cha-Thr-Nva-Ile-Arg-ProNHCH2CH3 [Example 28],47.0%
4,N-Ac-Sar-Gly-Val-D-Ile-Thr-Gln-Ile-Arg-ProNHCH2CH3 [Example 43],94.1%
5,N-Ac-Sar-Gly-Val-D-Ile-Thr-Nva-Ile-Arg-ProNHethyl-(1-pyrrolidine) [Example 5],87.2%
6,N-Ac-Sar-Gly-Val-D-Val-Thr-Nva-Ile-Arg-ProNHCH2CH3 [Example 18],51.4%

# Same assay, conditions: 20 nM; migration stimulated with 15 ng/ml bFGF/VEGF; compared to positive control
row,Compound,% Inhib. @ 20 nM
1,"CCC[C@H](NC(=O)[C@@H](NC(=O)[C@H](NC(=O)[C@@H](NC(=O)CNC(=O)CN(C)C(C)=O)C(C)C)[C@H](C)CC)[C@@H](C)O)C(=O)N[C@H](C(=O)N[C@@H](CCCNC(=N)N)C(=O)N1CCC[C@H]1C(=O)NCC)[C@@H](C)CC [Example 1, N-Ac-Sar-Gly-Val-D-Ile-Thr-Nva-Ile-Arg-ProNHCH2CH3] (Ac-[Sar]GV[dI]T[Nva]IRP-NHEt)",87.3%
2,H-Sar-Gly-Val-D-Ile-Thr-Nva-Ile-Arg-ProNHCH2CH3 [Example 66],76.1%
3,N-(2-Furoyl)-Sar-Gly-Val-D-Ile-Thr-Nva-Ile-Arg-ProNHCH2CH3 [Example 59],82.3%
4,N-(2-Me-Nicotinyl)-Sar-Gly-Val-D-Ile-Thr-Nva-Ile-Arg-ProNHCH2CH3 [Example 53],76.7%
5,N-Ac-Sar-Gly-Val-D-Ile-Thr-Ala-Ile-Arg-ProNHCH2CH3 [Example 46],77.5%
6,N-Ac-Sar-Gly-Val-D-Ile-Thr-Allylgly-Ile-Arg-ProNHCH2CH3 [Example 49],83.4%
7,N-Ac-Sar-Gly-Val-D-Ile-Thr-DNva-Ile-Arg-ProNHCH2CH3 [Example 42],60.2%
8,N-Ac-Sar-Gly-Val-D-Ile-Thr-Met-Ile-Arg-ProNHCH2CH3 (Ac-[Sar]GV[dI]TMIRP-NHEt; SMILES CCNC(=O)[C@@H]1CCCN1C(=O)[C@H](CCCNC(=N)N)NC(=O)[C@@H](NC(=O)[C@H](CCSC)NC(=O)[C@@H](NC(=O)[C@H](NC(=O)[C@@H](NC(=O)CNC(=O)CN(C)C(C)=O)C(C)C)[C@H](C)CC)[C@@H](C)O)[C@@H](C)CC) [Example 51],67.0%
9,N-Ac-Sar-Gly-Val-D-Ile-Thr-Nva-Ile-Arg-ProNHCH2CH2OCH3 [Example 11],70.4%
10,N-Ac-Sar-Gly-Val-D-Ile-Thr-Nva-Ile-Arg-ProNHCH(CH3)2 [Example 4],71.3%
11,N-Ac-Sar-Gly-Val-D-Ile-Thr-Val-Ile-Arg-ProNHCH2CH3 (Ac-[Sar]GV[dI]TVIRP-NHEt) [Example 47],69.7%
12,N-Butyryl-Sar-Gly-Val-D-Ile-Thr-Nva-Ile-Arg-ProNHCH2CH3 [Example 60],75.3%
13,N-MeOacetyl-Sar-Gly-Val-D-Ile-Thr-Nva-Ile-Arg-ProNHCH2CH3 [Example 57],56.6%
14,N-Nicotinyl-Sar-Gly-Val-D-Ile-Thr-Nva-Ile-Arg-ProNHCH2CH3 [Example 55],59.2%
15,N-Propionyl-Sar-Gly-Val-D-Ile-Thr-Nva-Ile-Arg-ProNHCH2CH3 [Example 56],49.9%
16,N-Shikimyl-Sar-Gly-Val-D-Ile-Thr-Nva-Ile-Arg-ProNHCH2CH3 [Example 58],68.8%
17,N-Succinyl-Sar-Gly-Val-D-Ile-Thr-Nva-Ile-Arg-ProNHCH2CH3 [Example 54],81.3%
